Assay results published in US20030022821A1, “Bioactive peptides” (priority 1998, published 2003).
pEC50, pIC50: −log10 of the molar value. Values after ≈ are worked out from the molar mass of the structure shown. “Also recorded” adds a separate entry of the source. Where two headings read alike, the source gives them in different places. Square brackets hold non-standard residues; d marks the D form. Ends that are not written are not given here. Peptide text beside a SMILES is read from it. * marks the point of attachment. Bip = N[C@@H](Cc1ccc(-c2ccccc2)cc1)C(=O)O; Acm = CC(=O)NC*

How the values were obtained:
human red blood cells = assay: Hemolytic assay; format: cell-based; details: red cells of human
[1] = tested on: Meth A cells (murine sarcoma cell line); assay: Cytotoxicity on Meth A cells, MTT method
Method: Peptide solutions (0.1 ml) were added and the plates incubated at 37° C. for 30 minutes, 4 hours or 24 hours. The cytotoxicity was measured using the MTT method (Mosmann et al., J. Immunol. (1986) 136, 2348-2357).
Cells in the growth phase were harvested and washed in fresh medium and injected subcutaneously into the abdominal region of the mice.
The cytotoxic effect of the peptides on different murine and human tumor cells were measured using the MTT method (Mosmann et al., J. Immunol. (1986) 136, 2348-2357). MTT is a soluble tetrazolium salt yielding a yellow solution when prepared in media or salt solutions lacking phenol red. Dissolved MTT is converted to an insoluble purple formazan by cleavage of the tetrazolium ring by dehydrogenase enzymes. This water insoluble formazan can be solubilized using isopropanol or other solvents and the dissolved material is measured spectrophotometrically. The absorbance was measured as a function of concentration of converted dye.
Cells were maintained in […] medium containing 10% FBS, 1% L-glutamine and 0.1% penicillin and streptomycin. Cells to be used in the assay were grown to confluency, trypsinated and split to single cell suspension, counted and centrifuged at 1500 rpm for 10 min. […][…] of cell suspension was transferred to each well on a 96-well microtiter plate. The cells were stimulated by adding […] of various concentrations of peptides diluted with assay medium to each well. The final concentrations of peptide were for example: 5, 10, 20, 40, 60, 80, 100, and 200 mg/ml. […] As a negative control only medium was added to the cells, and as a positive control (100% killing) 1% triton X-100 was added. Following an incubation period of 4 h., 20 ml MTT dissolved in PBS at a concentration of 5 mg/ml was added to each well, and the plate was incubated further for 2 h. 130 ml of the supernatant were then removed and […] acid alcohol (0.04-0.1 N HCl in isopropanol) added to each well to dissolve the dark blue crystals. The plate was placed on a shaker for 1 h and read spectrophotometrically at 590 nm in a microtiterplate reader using the Softmaxâ program.

normal fibroblasts = format: cell-based
[2] = tested on: Escherichia coli ATCC 25922; format: cell-based
Method in brief: (§1)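 MIC values came from a standard microdilution method using mid-log bacteria at 2×10^6 CFU/ml in 1% Bacto Peptone water. HPLC confirmed actual peptide concentrations in solution, given possible adherence of the cationic peptides to plastic.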

[3] = tested on: Staphylococcus aureus ATCC 25923; format: cell-based
Method in brief: as §1

[4] = tested on: MRSA (methicillin resistant S. aureus); format: cell-based
Method: The bacterial strains used were: Escherichia coli ATCC 25922 and Staphylococcus aureus ATCC 25923. All strains were stored at −70° C. The bacteria were grown in 2% Bacto Peptone water (Difco 1807-17-4). All tests were performed with bacteria in mid-logarithmic growth phase. Determination of the minimum inhibitory concentration (MIC) of the peptides for bacterial strains were performed in 1% Bacto Peptone water. A standard microdilution technique with an inoculum of 2×10^6 CFU/ml was used. All assays were performed in triplets. Since the peptides are positively charged and therefore could adhere to the plastic wells, we controlled the actual concentration of the peptides in the solution by HPLC. There was no difference between the concentration of the peptides before or after adding the solution to the plastic wells.
Table 13 below gives the antibacterial activity and toxicity data for some preferred peptides of the invention. MRSA is methicillin resistant S. aureus and MRSE is methicillin resistant S. epidermidis.

Row | Compound | pEC50 (human red blood cells) | pIC50 ([1]; 4 h) | pIC50 (normal fibroblasts) | Mic S. Aureus ([3]; ATCC 25923) | Mic E-coli ([2]; ATCC 25922) | further results
1 | PAWRKAFRKAKRMLKKAA-OH [LFB 14-31A2,6, 10, 17F7K9, 11, 16L14R4] | < 3.33 | < 3.52 | < 3.33 |  |  | 
2 | PAWRKAFRWAWRMLKKAA-OH [LFB 14-31A2,6, 10, 17F7K16L14R4] | 3.96 | 5.18 | 4.77 | 2 µM |  | Mic E-coli ([2]; Table 17): 2/4
3 | CSCC[C@H](NC(=O)[C@H](CCCNC(=N)N)NC(=O)[C@H](Cc1c[nH]c2ccccc12)NC(=O)[C@H](CCC(N)=O)NC(=O)[C@H](Cc1c[nH]c2ccccc12)NC(=O)[C@H](CCCNC(=N)N)NC(=O)[C@H](CCCNC(=N)N)NC(=O)[C@H](Cc1ccc(-c2ccccc2)cc1)NC(=O)[C@H](CCCCN)NC(=O)[C@@H](N)Cc1ccccc1)C(=O)N[C@@H](CCCCN)C(=O)N[C@@H](CCCCN)C(=O)N[C@@H](CC(C)C)C(=O)NCC(=O)N[C@@H](C)C(=O)O [LFB Bip3] (H-FK[Bip]RRWQWRMKKLGA-OH; N-terminus assumed) |  |  |  |  |  | MIC E. coli ([2]; Table 13, listed as LPB Bip 3): 12.5 µg/mL (≈ 5.91 µM); MIC MRSA ([4]; Table 13, listed as LPB Bip 3): 2.5 µg/mL; MIC MRSA ([4]; methicillin resistant): 1.2 µM
4 | PAIRKAFRIAIRMLKKAA-OH | < 3.31 | 4.33 | 3.55 | 10 µM | 2.5 µM | 
5 | PAIRKAFRWAIRMLKKAA-OH [LFB 14-31A2,6, 10, 17F7I3, 11K16L14R4] | 3.38 | 4.80 | 4.35 | 5 µM | 2.5 µM | 
6 | PAWRKAFRIAIRMLKKAA-OH [LFB 14-31A2,6, 10, 17F7I9, 11K16L14R4] |  | 4.66 | 4.59 |  |  | 
7 | PAWRKAFRIAWRMLKKAA-OH [LFB 14-31A2,6, 10, 17F7I9K16L14R4] |  | 4.92 | 4.59 | <1 µM | 5 µM | 
8 | PAWRKAFRAAWRMLKKAA-OH [LFB 14-31A2,6,9, 10, 17F7K16L14R4] | 3.42 | 4.79 | 4.33 | 5 µM | 10 µM | 
9 | C[C@@H](NC(=O)[C@H](Cc1c[nH]c2ccccc12)NC(=O)[C@H](CCCNC(=N)N)NC(=O)[C@H](Cc1c[nH]c2ccccc12)NC(=O)[C@@H](C)NC(=O)[C@@H](CCCNC(=N)N)NC(=O)[C@H](N)Cc1ccc(O)cc1)C(=O)N[C@@H](Cc1c[nH]c2ccccc12)C(=O)N[C@@H](CCCNC(=N)N)C(=O)N[C@@H](Cc1c[nH]c2ccccc12)C(=O)N[C@@H](CCCNC(=N)N)C(N)=O (H-[dY][dR][dA]WRW[dA]WRWR-NH2) |  |  |  |  |  | MIC E. coli ([2]; Table 14, peptides with a proportion of D amino acids): 7.5 µg/mL (≈ 4.43 µM); MIC S. aureus ([3]; Table 14): 5 µg/mL (≈ 2.96 µM); MIC MRSA ([4]; Table 14): 2.5 µg/mL
10 | PAWRKAFRKAWRMLKKAA-OH [LFB 14-31A2,6, 10, 17F7K9, 16L14R4] | < 3.35 | 4.87 | 4.23 | 10 µM | 30 µM | 
11 | CSCC[C@H](NC(=O)[C@H](CCCNC(=N)N)NC(=O)[C@H](Cc1ccc(-c2ccccc2)cc1)NC(=O)[C@H](CCC(N)=O)NC(=O)[C@H](Cc1ccc(-c2ccccc2)cc1)NC(=O)[C@H](CCCNC(=N)N)NC(=O)[C@H](CCCNC(=N)N)NC(=O)[C@H](CSCNC(C)=O)NC(=O)[C@H](CCCCN)NC(=O)[C@@H](N)Cc1ccccc1)C(=O)N[C@@H](CCCCN)C(=O)N[C@@H](CCCCN)C(=O)N[C@@H](CC(C)C)C(=O)NCC(=O)N[C@@H](C)C(=O)O [LFB Bip6, 8] |  |  |  |  |  | MIC E. coli ([2]; ATCC 25922): 10 µg/mL (≈ 4.67 µM); MIC E. coli ([2]; Table 13, 8): ≧12.5 μg/ml; also recorded: ≧5.8 μM; MIC S. aureus ([3]; Table 13, 8): 3.0 µg/mL (≈ 1.4 µM); MIC MRSA ([4]; Table 13, 8): 2.5 µg/mL; MIC MRSA ([4]; methicillin resistant): 1.2 µM
12 | PAWRKAARWAWRMLKKAA-OH [LFB 14-31A2,6, 10, 17F7K16L14R4 F7 → A7] | < 3.34 | 4.46 | 3.54 | 10 µM | 15 µM | 
13 | PAWRKAFRWAIRMLKKAA-OH [LFB 14-31A2,6, 10, 17F7I11K16L14R4] |  | 5.22 | 4.82 | <1 µM |  | Mic E-coli ([2]; Table 17): 2/5
14 | PAWRKAFRAAARMLKKAA-OH [LFB 14-31A2,6,9, 10, 11, 17F7K16L14R4] | < 3.31 | 3.96 | < 3.31 | 30 µM | 30 µM | 
15 | PAWRKAFRWAARMLKKAA-OH [LFB 14-31A2,6, 10, 11, 17F7K16L14R4] | 3.56 | 4.95 | 4.33 | >2.5 µM | 10 µM | 
16 | PAKRKAFRWAWRMLKKAA-OH [LFB 14-31A2,6, 10, 17F7K3, 16L14R4] | < 3.35 | 3.64 | 3.64 |  |  | 
17 | PAARKAFRWAWRMLKKAA-OH [LFB 14-31A2,3,6, 10, 17F7K16L14R4] | < 3.33 | 4.62 | 3.72 | 10 µM | 15 µM | 
18 | PAIRKAFRWAWRMLKKAA-OH [LFB 14-31A2,6, 10, 17F7I3K16L14R4] | 3.49 | 5.05 | 4.70 |  |  | Mic E-coli ([2]; Table 17): 2/4; Mic S. Aureus ([3]; Table 17): 2/4
19 | RRWQWRMKKL-OH [LFB 20-29] |  |  |  |  |  | MIC E. coli ([2]; ATCC 25922): 60 µg/mL; MIC S. aureus ([3]; ATCC 25923): >100 µg/mL; % Hemolysis 10 μg/ml (human red blood cells): 1.75%; % Hemolysis 100 μg/ml (human red blood cells): 2.74%; MethA IC50 ([1]; 4 h): 500 µg/mL
20 | PAIRKAFRIAWRMLKKAA-OH [LFB 14-31A2,6, 10, 17F7I3, 9K16L14R4] | < 3.33 | 4.44 | 3.97 | 5 µM | 5 µM | 
21 | PAWRKAFRWAKRMLKKAA-OH [LFB 14-31A2,6, 10, 17F7K11, 16L14R4] | < 3.35 | 5.10 | 4.51 | <2.5 µM | 5 µM | 
22 | CC(=O)NCSC[C@H](NC(=O)[C@H](CCCCN)NC(=O)[C@@H](N)Cc1ccccc1)C(=O)N[C@@H](Cc1c[nH]c2ccccc12)C(=O)N[C@@H](CCCNC(=N)N)C(=O)N[C@@H](Cc1c[nH]c2ccccc12)C(=O)N[C@@H](CCC(N)=O)C(=O)N[C@@H](Cc1c[nH]c2ccccc12)C(=O)N[C@@H](CCCNC(=N)N)C(=O)N[C@@H](Cc1c[nH]c2ccccc12)C(=O)N[C@@H](CCCCN)C(=O)N[C@@H](CCCCN)C(=O)N[C@@H](CC(C)C)C(=O)NCC(=O)N[C@@H](C)C(=O)O [LFB W4, 10, H2N-Phe-Lys-Cys-Trp-Arg-Trp-Gln-Trp-Arg-Trp-Lys-Lys-Leu-Gly-Ala-COOH] (H-FKC(Acm)WRWQWRWKKLGA-OH) |  |  |  |  |  | MIC E. coli ([2]; ATCC 25922): 5 µg/mL (≈ 2.32 µM); MIC E. coli ([2]; Table 6): 5 µg/mL (≈ 2.32 µM); MIC S. aureus ([3]; ATCC 25923): 10 µg/mL (≈ 4.65 µM); MIC S. aureus ([3]; Table 6, unit assumed): 10 µg/mL (≈ 4.65 µM); % Hemolysis 10 μg/ml (human red blood cells): 4.45%; % Hemolysis 100 μg/ml (human red blood cells): 27.8%; Meth A IC50 ([1]; 4 h): 500 µg/mL
23 | PAWRKARRWAWRMKKLAA-OH [LFB 14-31 A2,6, 10, 17R4] | < 3.36 |  |  |  |  | MIC E. coli ([2]; ATCC 25922): 30 µg/mL; MIC S. aureus ([3]; ATCC 25923): 20 µg/mL; pIC50 ([1]; read-out: MethA IC 50, Table 7, peptide required to kill 50% of MethA cells): 4.12
